From ChEMBL document CHEMBL5360649, “Potential Broad-Spectrum Antimicrobial, Wound Healing, and Disinfectant Cationic Peptide Crafted from Snake Venom” (J Med Chem, 2023)
The source made the active and inactive calls. The rule behind the calls is not given here.

Legend:
Klebsiella pneumoniae [1] = assay: Induction of morphological changes in carbapenem resistant Klebsiella pneumoniae ATCC BAA-1705 assessed as cellular destruction at MIC concentration incubated for 6 hrs by SEM analysis; type: functional, organism-based
Pseudomonas aeruginosa [2] = assay: Bactericidal activity against patient-derived Pseudomonas aeruginosa assessed as reduction in bacterial growth incubated for 24 hrs by Mueller Hinton Agar based plate analysis; type: functional
[3] = Stability in human serum assessed as half-life at 1 mM by HPLC analysis; type: ADME, cell-free
Klebsiella pneumoniae [4] = assay: Antibiofilm activity against Klebsiella pneumoniae assessed as clearance of preformed biofilm at 0.5 times of MIC incubated for 24 hrs by CV staining based analysis relative to control; type: functional
Staphylococcus aureus [5] = assay: Antibacterial activity against methicillin resistant Staphylococcus aureus assessed as inhibition of bacterial growth at 1.25 to 40 uM by microtiter plate reader analysis; type: functional, organism-based; conditions: dose 1.25-40 µM, time 0.5-8.5 hrs, TDE = time-dependent effect
Pseudomonas aeruginosa [6] = assay: Induction of morphological changes in Pseudomonas aeruginosa at MIC concentration incubated for 6 hrs by AFM analysis; type: functional, organism-based
Escherichia coli [7] = assay: Antibacterial activity against Escherichia coli assessed as cell division block by measuring bacterial filamentation at 0.5 to 1 times of MIC incubated for 30 mins by SYTO9/PI staining based fluorescence microscopic analysis; type: functional, organism-based
[8] = Cytotoxicity against human A549 cells assessed as cell viability at 25 uM incubated for 24 hrs by MTT assay relative to control; type: toxicity, cell-based; conditions: read-out: Activity
Klebsiella pneumoniae [9] = assay: Antibiofilm activity against Klebsiella pneumoniae assessed as increase in dead cell proportion at MIC incubated overnight by SYTO9/PI staining based fluorescence analysis; type: functional, organism-based
Klebsiella pneumoniae [10] = assay: Induction of morphological changes in carbapenem resistant Klebsiella pneumoniae ATCC BAA-1705 assessed as inhibition of cell division by measuring elongated cells at MIC concentration incubated for 60 mins by SEM analysis; type: functional, organism-based
U-937 = assay: Immunomodulatory activity in human U-937 cells assessed as reduction in LPS-induced IL-6 expression level incubated for 24 hrs by radioimmunoprecipitation based dot-plot analysis; type: functional, cell-based; conditions: dose 5-10 µM
Staphylococcus aureus [11] = assay: Induction of morphological changes in methicillin-resistant Staphylococcus aureus at MIC concentration incubated for 6 hrs by SEM analysis; type: functional, organism-based
[12] = […] activity against LPS-induced human PBMC assessed as increase in cell number by measuring rise in cell proliferation percentage at 12.5 uM measured after 12 hrs by lymphocyte proliferation assay (12 hrs incubated Rvb = 478.774%); type: functional
Klebsiella pneumoniae [13] = assay: Induction of resistance development in Klebsiella pneumoniae assessed as fold increase in MIC at 0.5 times of MIC incubated with compound for 12 hrs followed by replacement with fresh medium for 12 hrs and measured after 20 repeated cycles; type: functional; conditions: time 240 hrs
Klebsiella pneumoniae [14] = assay: Antibacterial activity against carbapenem resistant Klebsiella pneumoniae ATCC BAA-1705 assessed as inhibition of bacterial growth incubated for 8 hrs at 1.25 to 40 uM by microtiter plate reader analysis; type: functional, organism-based; conditions: dose 1.25-40 µM
Pseudomonas aeruginosa [15] = assay: Induction of resistance development in Pseudomonas aeruginosa assessed as change in MIC at 0.5 times of MIC incubated with compound for 12 hrs followed by replacement with fresh medium for 12 hrs and measured after 20 repeated cycles; type: functional, organism-based; conditions: time 240.0 hrs
Klebsiella pneumoniae [16] = assay: Antibacterial activity against carbapenem resistance Klebsiella pneumoniae ATCC BAA-1705 assessed as inhibition of bacterial growth at 1.25 to 40 uM by microtiter plate reader analysis; type: functional, organism-based; conditions: dose 1.25-40 µM, time 0.5-8.5 hrs, TDE = time-dependent effect
Escherichia coli [17] = assay: Induction of morphological changes in Escherichia coli at MIC concentration incubated for 6 hrs by AFM analysis; type: functional, organism-based
Klebsiella pneumoniae [18] = assay: Antibiofilm activity against preformed biofilm in Klebsiella pneumoniae assessed as decrease in cell viability at MIC incubated overnight by MTT assay relative to control; type: functional
Klebsiella pneumoniae [19] = assay: Antibacterial activity against Klebsiella pneumoniae ATCC BAA-1705 assessed as inhibition of bacterial growth at 25 to 100 uM incubated overnight by spotting assay; type: functional, organism-based; conditions: dose 25-100 µM
Cell membrane [20] = assay: Induction of inner membrane permeabilization in Escherichia coli assessed as increase in fluorescence at 0.5 to 1 times of MIC incubated for 60 mins by PI staining based fluorescence analysis; type: subcellular
Staphylococcus aureus [21] = assay: Antibiofilm activity against methicillin-resistant Staphylococcus aureus assessed as increase in dead cell proportion at 0.5 times of MIC incubated overnight by SYTO9/PI staining based fluorescence analysis; type: functional, organism-based
[22] = Cytotoxicity against NMDF cells assessed as viable cells at 12.5 uM incubated for 24 hrs by MTT assay relative to control; type: toxicity, cell-based; conditions: mouse, read-out: Activity
Cell membrane [23] = assay: Induction of inner membrane permeabilization in Pseudomonas aeruginosa assessed as increase in fluorescence at 0.5 to 1 times of MIC incubated for 60 mins by PI staining based fluorescence analysis; type: subcellular
Escherichia coli [24] = assay: Bactericidal activity against Escherichia coli ATCC CRM-11229 assessed as reduction in bacterial growth incubated for 24 hrs by Mueller Hinton Agar based plate analysis; type: functional
[25] = Hemolytic activity in human RBC assessed as hemolysis at 3.125 to 12.5 uM incubated for 30 mins under shaking condition by multiplate reader analysis relative to control; type: toxicity, cell-based, Erythrocyte; conditions: human red blood cells (RBC), dose 3.125-12.5 µM, read-out: Activity
PBMC = assay: Effect on cell viability in human PBMC assessed as increase in cell number by measuring rise in cell proliferation percentage at 12.5 uM measured after 12 hrs by lymphocyte proliferation assay (12 hrs incubated Rvb = 478.774%); type: toxicity, cell-based
Escherichia coli [26] = assay: Induction of morphological changes in Escherichia coli assessed as membrane damage at MIC concentration incubated for 60 mins by SEM analysis; type: functional, organism-based
Escherichia coli [27] = assay: Antibacterial activity against Escherichia coli ATCC CRM-11229 assessed as inhibition of bacterial growth at 25 to 100 uM incubated overnight by spotting assay; type: functional, organism-based; conditions: dose 25-100 µM
Cell membrane [28] = assay: Induction of cytoplasmic membrane depolarization in Klebsiella pneumoniae assessed as increase in fluorescence intensity at 0.5 to 1 times of MIC incubated for 22 mins by DiSC3-5 dye based fluorescence method; type: subcellular
Klebsiella pneumoniae [29] = assay: Antibacterial activity against Klebsiella pneumoniae assessed as induction of cellular damage at MIC concentration incubated for 30 mins by SYTO9/PI staining based fluorescence microscopic analysis; type: functional, organism-based
Pseudomonas aeruginosa [30] = assay: Antibacterial activity against patient-derived Pseudomonas aeruginosa assessed as inhibition of bacterial growth incubated for 24 hrs by CLSI protocol based microdilution method; type: functional
Klebsiella pneumoniae [31] = assay: Antibiofilm activity against Klebsiella pneumoniae assessed as eradication of preformed biofilm at 1 times of MIC incubated for 24 hrs by CV staining based analysis relative to control; type: functional
[32] = Induction of wound healing in surgically-induced Albino Wistar rat wound model assessed as decrease in mean open wound percentage at 10 uM measured after 11 days by photographic analysis (reference value: 32.25%); type: functional; set-up: scale not given: the % may be the effect or the level left; conditions: time 11 day
[33] = Stability in human serum assessed as intact peptide remaining at 1 mM measured after 4 hrs by HPLC analysis; type: ADME, cell-free; conditions: read-out: Stability
Klebsiella pneumoniae [34] = assay: Antibacterial activity against Klebsiella pneumoniae ATCC BAA-1705 assessed as inhibition of bacterial growth incubated for 24 hrs by CLSI protocol based microdilution method; type: functional

In the case of H-FLPIIKWVKKFFWRWR-OH, the Activity (Klebsiella pneumoniae [1]) is reported as “Active”, the MBC (Pseudomonas aeruginosa [2]) is reported as 6 µM and the half-life at 1000 µM [3] is reported as about 24 h. For the same substance, the Activity (Klebsiella pneumoniae [4]) was about 52%, the Activity (Staphylococcus aureus [5]) was “Tde” and the Activity (Pseudomonas aeruginosa [6]) was “Active”. The Activity (Escherichia coli [7]) was “Active”, the viability at 24 h, 25 µM [8] was 55.4% and the Activity (Klebsiella pneumoniae [9]) was “Active”. The Activity (Klebsiella pneumoniae [10]) was “Active”, the Activity (U-937) was “Dose-Dependent Effect” and the Activity (Staphylococcus aureus [11]) was “Active”. The Activity [12] was 52.357%, the “fold change (FC)” value (Klebsiella pneumoniae [13]) was 2 and the Activity (Klebsiella pneumoniae [14]) was “Active”. For the same substance, the Activity (Pseudomonas aeruginosa [15]) was “inactive”, the Activity (Klebsiella pneumoniae [16]) was “Tde” and the Activity (Escherichia coli [17]) was “Active”. For the same substance, the Activity (Klebsiella pneumoniae [18]) was 51.78%, the Activity (Klebsiella pneumoniae [19]) was “Active” and the Activity (Cell membrane [20]) was “Active”. The Activity (Staphylococcus aureus [21]) was “inactive”, the viability at 24 h, 12.5 µM [22] was over 85% and the Activity (Cell membrane [23]) was “Active”. The MBC (Escherichia coli [24]) was 4.5 µM, the hemolysis at 0.5 h, up to 12.5 µM [25] was 3.22% and the Activity (PBMC) was 55.188%. For the same substance, the Activity (Escherichia coli [26]) was “Active”, the Activity (Escherichia coli [27]) was “Active” and the Activity (Cell membrane [28]) was “Active”. The Activity (Klebsiella pneumoniae [29]) was “Active”, the MIC (Pseudomonas aeruginosa [30]) was 4 µM and the Activity (Klebsiella pneumoniae [31]) was about 88%. It also gave an Activity [32] of 5.6%, a remaining at 4 h, 1000 µM [33] of 82.6% and an MIC (Klebsiella pneumoniae [34]) of 8 µM.
